Data from US11634447B2 (priority 2012, dated 2023).

System: bacterial strain LF82 binding to the glycoprotein BSA-(Mannose)3
Assay: Bacterial Binding Assay (BBA)
Type: cell-based, Escherichia coli
Conditions: read-out: Bacterial Binding Assay IC50, LF82/Luciferase strain binding to BSA-(Man)3 coated plates, luminescence
In short: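 Inhibition of LF82/luciferase E. coli adhesion is read as luminescence after washing off unbound cells. Compound and bacteria (10^7 per well) are co-incubated 40-75 min at room temperature on wells coated with 0.5-2 μg/mL BSA-(Man)3, with BSA-only wells as background; IC50 values derived.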

| Compound | IC50 [nM] |
| --- | --- |
| OC[C@H]1O[C@H](C#Cc2ccc3c(c2)C(O)(c2ccccc2)c2cc(C#C[C@H]4O[C@H](CO)[C@@H](O)[C@H](O)[C@@H]4O)ccc2-3)[C@@H](O)[C@@H](O)[C@@H]1O (stereo partly drawn) [Compound 167, (2R,3S,4R,5S,6R)-2-(hydroxymethyl)-6-[2-[9-hydroxy-9-phenyl-7-[2-[(2R,3S,4R,5S,6R)-3,4,5-trihydroxy-6-(hydroxymethyl)tetrahydropyran-2-yl]ethynyl]fluoren-2-yl]ethynyl]tetrahydropyran-3,4,5-triol] | 16 |
| Cc1cc(C#C[C@H]2O[C@H](CO)[C@@H](O)[C@H](O)[C@@H]2O)c(C)cc1C#C[C@H]1O[C@H](CO)[C@@H](O)[C@H](O)[C@@H]1O [Compound 97, (2R,3S,4R,5S,6R)-2-[2-[2,5-dimethy1-4-[2-[(2R,3S,4R,5S,6R)-3,4,5-trihydroxy-6-(hydroxymethyl)tetrahydropyran-2-yl]ethynyl]phenyl]ethynyl]-6-(hydroxymethyl)tetrahydropyran-3,4,5-triol] | 24 |
| OCCC1(CCO)c2cc(C#C[C@H]3O[C@H](CO)[C@@H](O)[C@H](O)[C@@H]3O)ccc2-c2ccc(C#C[C@H]3O[C@H](CO)[C@@H](O)[C@H](O)[C@@H]3O)cc21 [Compound 193, (2R,3S,4R,5S,6R)-2-[2-[9,9-Bis(2-hydroxyethyl)-7-[2-[(2R,3S,4R,5S,6R)-3,4,5-trihydroxy-6-(hydroxymethyl)tetrahydropyran-2-yl]ethynyl]fluoren-2-yl]ethynyl]-6-(hydroxymethyl)tetrahydropyran-3,4,5-triol] | 0.27 |
| Cc1cc(-c2ccc([C@H]3O[C@H](CO)[C@@H](O)[C@H](O)[C@@H]3O)cc2)ccc1[C@H]1O[C@H](CO)[C@@H](O)[C@H](O)[C@@H]1O [Compound 64] | 15 |
| O=C1CCC2(CCO1)c1cc(C#C[C@H]3O[C@H](CO)[C@@H](O)[C@H](O)[C@@H]3O)ccc1-c1ccc(C#C[C@H]3O[C@H](CO)[C@@H](O)[C@H](O)[C@@H]3O)cc12 [Compound 218, 2,7-bis[2-[(2R,3S,4R,5S,6R)-3,4,5-trihydroxy-6-(hydroxymethyl)tetrahydropyran-2-yl]ethynyl]spiro[fluorene-9,5oxepane]-2one] | 0.09 |
| COc1cc([C@H]2O[C@H](CO)[C@@H](O)[C@H](O)[C@@H]2O)ccc1-c1ccc([C@H]2O[C@H](CO)[C@@H](O)[C@H](O)[C@@H]2O)cc1 [Compound 67] | 40 |
| OC[C@H]1O[C@H](c2ccc(-c3ccc(-c4ccc([C@H]5O[C@H](CO)[C@@H](O)[C@H](O)[C@@H]5O)cc4)cc3)cc2)[C@@H](O)[C@@H](O)[C@@H]1O [Compound 65] | 55 |
| NC(=O)CCC(=O)c1c(C#C[C@H]2O[C@H](CO)[C@@H](O)[C@H](O)[C@@H]2O)ccc2c1C1(CCNCC1)c1cc(C#C[C@H]3O[C@H](CO)[C@@H](O)[C@H](O)[C@@H]3O)ccc1-2 [Compound 234, 4-[2,7-bis[2-[(2R,3S,4R,5S,6R)-3,4,5-trihydroxy-6-(hydroxymethyl)tetrahydropyran-2-yl]ethynyl]spiro[fluorene-9,4piperidine]-1yl]-4-oxo-butanamide] | 0.04 |
| OC[C@H]1O[C@H](C#Cc2ccc(C#C[C@H]3O[C@H](CO)[C@@H](O)[C@H](O)[C@@H]3O)c(C(F)(F)F)c2)[C@@H](O)[C@@H](O)[C@@H]1O [Compound 91, (2R,3S,4R,5S,6R)-2-(hydroxymethyl)-6-[2-[3-(trifluoromethyl)-4-[2-[(2R,3S,4R,5S,6R)-3,4,5-trihydroxy-6-(hydroxymethyl)tetrahydropyran-2-yl]ethynyl]phenyl]ethynyl]tetrahydropyran-3,4,5-triol] | 58 |
| Cc1c(C)c(C#C[C@H]2O[C@H](CO)[C@@H](O)[C@H](O)[C@@H]2O)c(C)c(C)c1C#C[C@H]1O[C@H](CO)[C@@H](O)[C@H](O)[C@@H]1O [Compound 84, (2R,3S,4R,5S,6R)-2-(hydroxymethyl)-6-[2-[2,3,5,6-tetramethy1-4-[2-[(2R,3S,4R,5S,6R)-3,4,5-trihydroxy-6-(hydroxymethyl)tetrahydropyran-2-yl]ethynyl]phenyl]ethynyl]tetrahydropyran-3,4,5-triol] | 315 |
| OC[C@H]1O[C@H](C#Cc2cc3sc(C#C[C@H]4O[C@H](CO)[C@@H](O)[C@H](O)[C@@H]4O)cc3s2)[C@@H](O)[C@@H](O)[C@@H]1O [Compound 133] | 28 |
| COCc1cc(C#C[C@H]2O[C@H](CO)[C@@H](O)[C@H](O)[C@@H]2O)c(COC)cc1C#C[C@H]1O[C@H](CO)[C@@H](O)[C@H](O)[C@@H]1O [Compound 89, (2R,3S,4R,5S,6R)-2-[2-[2,5-bis(methoxymethyl)-4-[2-[(2R,3S,4R,5S,6R)-3,4,5-trihydroxy-6-(hydroxymethyl)tetrahydropyran-2-yl]ethynyl]phenyl]ethynyl]-6-(hydroxymethyl)tetrahydropyran-3,4,5-triol] | 82 |
| OC[C@H]1O[C@H](c2ccc(C#C[C@H]3O[C@H](CO)[C@@H](O)[C@H](O)[C@@H]3O)c(F)c2)[C@@H](O)[C@@H](O)[C@@H]1O [Compound 144] | 235 |
| OC[C@H]1O[C@H](C#Cc2ccc3c(c2)CCc2cc(C#C[C@H]4O[C@H](CO)[C@@H](O)[C@H](O)[C@@H]4O)ccc2-3)[C@@H](O)[C@@H](O)[C@@H]1O [Compound 117, (2R,3S,4R,5S,6R)-2-(hydroxymethyl)-6-[2-[7-[2-[(2R,3S,4R,5S,6R)-3,4,5-trihydroxy-6-(hydroxymethyl)tetrahydropyran-2-yl]ethynyl]-9,10-dihydrophenanthren-2-yl]ethynyl]tetrahydropyran-3,4,5-triol] | 23 |
| O=S1(=O)c2cc(C#C[C@H]3O[C@H](CO)[C@@H](O)[C@H](O)[C@@H]3O)ccc2-c2ccc(C#C[C@H]3O[C@H](CO)[C@@H](O)[C@H](O)[C@@H]3O)cc21 [Compound 161, (2R,3S,4R,5S,6R)-2-[2-[5,5-dioxo-7-[2-[(2R,3S,4R,5S,6R)-3,4,5-trihydroxy-6-(hydroxymethyl)tetrahydropyran-2-yl]ethynyl]dibenzothiophen-3-yl]ethynyl]-6-(hydroxymethyl)tetrahydropyran-3,4,5-triol] | 12 |
| OC[C@H]1O[C@H](C#Cc2ccc(C#C[C@H]3O[C@H](CO)[C@@H](O)[C@H](O)[C@@H]3O)c(F)c2F)[C@@H](O)[C@@H](O)[C@@H]1O [Compound 78, (2R,3S,4R,5S,6R)-2-[2-[2,3-difluoro-4-[2-[(2R,3S,4R,5S,6R)-3,4,5-trihydroxy-6-(hydroxymethyl)tetrahydropyran-2-yl]ethynyl]phenyl]ethynyl]-6-(hydroxymethyl)tetrahydropyran-3,4,5-triol] | 63 |
| CC(C)(C)OC(=O)N1CCC(n2c3cc(C#C[C@H]4O[C@H](CO)[C@@H](O)[C@H](O)[C@@H]4O)ccc3c3ccc(C#C[C@H]4O[C@H](CO)[C@@H](O)[C@H](O)[C@@H]4O)cc32)CC1 [Compound 185, tert-butyl 4-[2,7-bis[2-[(2R,3S,4R,5S,6R)-3,4,5-trihydroxy-6-(hydroxymethyl)tetrahydropyran-2-yl]ethynyl]carbazol-9-yl]piperidine-1-carboxylate] | 1.1 |
| O=C(CN1CCCC1=O)c1c(C#C[C@H]2O[C@H](CO)[C@@H](O)[C@H](O)[C@@H]2O)ccc2c1C1(CCNCC1)c1cc(C#C[C@H]3O[C@H](CO)[C@@H](O)[C@H](O)[C@@H]3O)ccc1-2 [Compound 241, 1-[2-[2,7-bis[2-[(2R,3S,4R,5S,6R)-3,4,5-trihydroxy-6-(hydroxymethyl)tetrahydropyran-2-yl]ethynyl]spiro[fluorene-9,4piperidine]-1yl]-2-oxo-ethyl]pyrrolidin-2-one] | 0.03 |
| O=C(c1cnccn1)c1c(C#C[C@H]2O[C@H](CO)[C@@H](O)[C@H](O)[C@@H]2O)ccc2c1C1(CCNCC1)c1cc(C#C[C@H]3O[C@H](CO)[C@@H](O)[C@H](O)[C@@H]3O)ccc1-2 [Compound 236, [2,7-bis[2-[(2R,3S,4R,5S,6R)-3,4,5-trihydroxy-6-(hydroxymethyl)tetrahydropyran-2-yl]ethynyl]spiro[fluorene-9,4piperidine]-1yl]-pyrazin-2-yl-methanone] | 0.5 |
| Cc1cc(C#C[C@H]2O[C@H](CO)[C@@H](O)[C@H](O)[C@@H]2O)ccc1-c1ccc(C#C[C@H]2O[C@H](CO)[C@@H](O)[C@H](O)[C@@H]2O)cc1C [Compound 124, (2R,3S,4R,5S,6R)-2-(hydroxymethyl)-6-[2-[3-methyl-4-[2-methyl-4-[2-[(2R,3S,4R,5S,6R)-3,4,5-trihydroxy-6-(hydroxymethyl)tetrahydropyran-2-yl]ethynyl]phenyl]phenyl]ethynyl]tetrahydropyran-3,4,5-triol] | 27 |
| Cc1cc(-c2ccc(-c3ccc([C@H]4O[C@H](CO)[C@@H](O)[C@H](O)[C@@H]4O)c(C)c3)nc2)ccc1[C@H]1O[C@H](CO)[C@@H](O)[C@H](O)[C@@H]1O [Compound 157, (2R,3S,4R,5S,6R)-2-(hydroxymethyl)-6-[2-methyl-4-[6-[3-methyl-4-[(2R,3S,4R,5S,6R)-3,4,5-trihydroxy-6-(hydroxymethyl)tetrahydropyran-2-yl]phenyl]-3-pyridyl]phenyl]tetrahydropyran-3,4,5-triol] | 10 |
| O=C(CCn1cccn1)c1c(C#C[C@H]2O[C@H](CO)[C@@H](O)[C@H](O)[C@@H]2O)ccc2c1C1(CCNCC1)c1cc(C#C[C@H]3O[C@H](CO)[C@@H](O)[C@H](O)[C@@H]3O)ccc1-2 [Compound 240, 1-[2,7-bis[2-[(2R,3S,4R,5S,6R)-3,4,5-trihydroxy-6-(hydroxymethyl)tetrahydropyran-2-yl]ethynyl]spiro[fluorene-9,4piperidine]-1yl]-3-pyrazol-1-yl-propan-1-one] | 0.05 |
| Cc1cc([C@H]2O[C@H](CO)[C@@H](O)[C@H](O)[C@@H]2O)ccc1C#C[C@H]1O[C@H](CO)[C@@H](O)[C@H](O)[C@@H]1O [Compound 143] | 240 |
